Experimental data taken from patent publication US8697687B2, “Treating diseases mediated by blockade of the epithelial sodium channel with pyrazine-2-carboxamide derivatives” (Novartis AG, priority 2007, dated 2014).

Molecular target: T1, epithelial sodium channel (ENaC) (Homo sapiens, UniProt P37088+P51168+P51170)
T1 construct: host or cells: primary Human Bronchial Epithelial cells (HBECs), air-liquid interface culture
T1 sequence (P37088 1-669): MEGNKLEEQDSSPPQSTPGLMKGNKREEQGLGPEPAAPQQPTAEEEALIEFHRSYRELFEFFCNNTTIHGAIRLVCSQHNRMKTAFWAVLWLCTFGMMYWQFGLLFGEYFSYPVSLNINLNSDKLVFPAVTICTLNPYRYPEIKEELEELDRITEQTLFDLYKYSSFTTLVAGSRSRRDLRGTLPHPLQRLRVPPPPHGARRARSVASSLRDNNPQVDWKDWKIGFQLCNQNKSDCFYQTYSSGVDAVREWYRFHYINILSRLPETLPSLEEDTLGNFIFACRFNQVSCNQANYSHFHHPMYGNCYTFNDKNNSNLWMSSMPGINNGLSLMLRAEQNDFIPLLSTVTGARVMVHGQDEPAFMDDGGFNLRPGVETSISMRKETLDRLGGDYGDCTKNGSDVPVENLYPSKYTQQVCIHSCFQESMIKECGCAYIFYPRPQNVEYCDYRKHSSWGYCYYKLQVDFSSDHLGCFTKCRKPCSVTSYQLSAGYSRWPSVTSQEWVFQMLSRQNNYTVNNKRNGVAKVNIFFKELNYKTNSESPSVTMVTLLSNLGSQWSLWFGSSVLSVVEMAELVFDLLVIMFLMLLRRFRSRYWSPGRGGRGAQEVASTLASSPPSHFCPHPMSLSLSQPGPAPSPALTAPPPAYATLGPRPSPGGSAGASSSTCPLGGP
T1 sequence (P51168 1-640): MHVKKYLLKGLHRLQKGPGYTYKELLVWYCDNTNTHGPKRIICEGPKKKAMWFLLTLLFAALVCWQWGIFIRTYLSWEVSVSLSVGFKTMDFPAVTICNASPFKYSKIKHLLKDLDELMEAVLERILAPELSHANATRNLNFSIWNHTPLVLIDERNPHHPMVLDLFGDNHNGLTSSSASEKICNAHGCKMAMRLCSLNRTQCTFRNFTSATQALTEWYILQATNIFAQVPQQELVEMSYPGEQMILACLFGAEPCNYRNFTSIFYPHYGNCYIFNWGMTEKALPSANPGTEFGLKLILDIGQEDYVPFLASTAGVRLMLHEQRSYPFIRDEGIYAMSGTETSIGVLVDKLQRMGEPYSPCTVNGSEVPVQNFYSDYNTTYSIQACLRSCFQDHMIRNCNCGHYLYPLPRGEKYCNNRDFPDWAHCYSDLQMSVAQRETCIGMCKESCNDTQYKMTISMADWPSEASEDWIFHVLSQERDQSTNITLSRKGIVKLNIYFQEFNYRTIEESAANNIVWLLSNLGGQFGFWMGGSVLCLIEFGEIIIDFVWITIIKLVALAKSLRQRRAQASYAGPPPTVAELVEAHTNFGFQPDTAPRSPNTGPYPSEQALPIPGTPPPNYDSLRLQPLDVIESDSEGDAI
T1 sequence (P51170 1-649): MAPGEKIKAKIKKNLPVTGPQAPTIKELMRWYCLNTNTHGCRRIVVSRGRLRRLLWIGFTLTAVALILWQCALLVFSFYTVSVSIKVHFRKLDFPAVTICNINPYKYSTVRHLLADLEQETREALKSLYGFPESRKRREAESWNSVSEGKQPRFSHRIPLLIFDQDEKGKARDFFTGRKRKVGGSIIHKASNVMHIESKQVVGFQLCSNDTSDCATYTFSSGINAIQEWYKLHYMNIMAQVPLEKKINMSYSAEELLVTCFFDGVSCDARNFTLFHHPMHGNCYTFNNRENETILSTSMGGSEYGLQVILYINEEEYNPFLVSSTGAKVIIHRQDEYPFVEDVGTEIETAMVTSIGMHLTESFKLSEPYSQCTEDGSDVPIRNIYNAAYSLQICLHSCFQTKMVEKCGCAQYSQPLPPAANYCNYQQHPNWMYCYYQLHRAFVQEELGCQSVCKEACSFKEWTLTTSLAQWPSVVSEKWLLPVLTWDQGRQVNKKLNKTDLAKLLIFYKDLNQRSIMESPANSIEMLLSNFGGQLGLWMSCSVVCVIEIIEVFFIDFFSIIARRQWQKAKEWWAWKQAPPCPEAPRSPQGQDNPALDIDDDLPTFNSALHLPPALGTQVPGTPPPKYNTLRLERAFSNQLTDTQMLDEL
Assay: Short circuit current (ISC) measurements in Human Bronchial Epithelial cells, inhibition of amiloride-sensitive ISC
Assay type: cell-based
Settings: inhibition of the amiloride-sensitive ISC; Human Bronchial Epithelial cells (HBECs) at air-liquid interface; compound added to apical chamber; read-out: IC50
Outline: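 Well-differentiated air-liquid interface HBECs (days 7–21) in Ussing chambers, Ringer pH 7.4, 37° C, voltage clamped at 0 mV. Cumulative 3-fold apical compound additions, then 10 μM amiloride to define total amiloride-sensitive ISC. IC50 from mean % inhibition, typically duplicate inserts.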

| Compound | IC50 [nM] |
| --- | --- |
| CC(c1ccccc1)N1CCC2(CC1)CN/C(=N\C(=O)c1nc(Cl)c(N)nc1N)N2 (centres unmarked) [Example 246, 3,5-Diamino-6-chloro-pyrazine-2-carboxylic acid [8-(1-phenyl-ethyl)-1,3,8-triaza-spiro[4.5]dec-(2E)-ylidene]-amide] | 25 |
| Nc1nc(N)c(C(=O)/N=C2\NCC3(CC4CCC(C3)N4C(=O)c3cccc4[nH]ccc34)N2)nc1Cl (centres unmarked) [Example 252, (E)-N-(8-(1H-indole-4-carbonyl)-8-azaspiro[bicyclo[3.2.1]octane-3,4′-imidazolidine]-2′-ylidene)-3,5-diamino-6-chloropyrazine-2-carboxamide] | 28 |
